Columns and labels:
[1] = tested on: LPS-induced IL-10 and IL-12p70 secretion in dendritic cells; experiment: ELISA of secreted IL-10 and IL-12p70 in LPS-stimulated dendritic cells; assay type: cell-based, human; conditions: 24 hrs
Procedure: Low platelet peripheral blood mononuclear cells (PBMCs) were isolated from peripheral blood of healthy donors by Ficoll-Paque density centrifugation. Monocytes were derived from the above PBMCs by immunomagnetic selection with CD14+ microbeads (Pan Monocyte Isolation Kit from Miltenyi Biotec) and seeded at s 0.5×10^6 monocytes/ml in CellGro medium supplemented with GM-CSF (100 ng/ml) and IL-4 (20 ng/ml) to obtain immature dendritic cells (iDCs). Cytokines were replenished after 72 hrs and 24 hrs after incubation, iDCs were stimulated with 30 ng/ml LPS to obtain mature dendritic cells (moDCs). Test compounds were added into the wells 1 hr prior to the LPS treatment and co-incubated with LPS for another 23 hrs. Supernatant was collected for the detection of secreted IL-10 and IL-12p70 using a standard ELISA kit and cells were collected and markers identified by flow cytometry.
The effects of compounds 323-1 and 323-2 and various controls on the LPS-induced expression of cytokines IL-10, IL-12p70, co-stimulatory molecules and maturation markers (CD80, CD83, CD86, HLA-DR, CCR7) and programmed death-ligand 1 (PD-L1) and programmed death-ligand 2 (PD-L2) were determined.

[2] = tested on: DU145, PC3, EPT3M1-STAT3, and 22Rv1 cells; experiment: In vitro clonogenic assay; assay type: cell-based, human; conditions: DU145, PC3, EPT3M1-STAT3, 22Rv1; 2 weeks
Procedure: On the second day after seeding single cells, 323-1 and 323-2 were added at various concentrations, and cells were allowed to grow for 2 weeks to form colonies, then stained with 0.4% crystal violet (w/v).

[3] = tested on: STAT3 target genes (Cyclin D1, BCL-XL, MCL1, Survivin, PARP); experiment: Western blot of STAT3 target gene proteins; assay type: cell-based, human
Procedure: As reported, aberrant STAT3 regulates the expression of downstream target genes involved in anti-apoptosis (Bcl-2, Mcl-1, survivin, and Bcl-xL), cell cycle (cyclin D1 and c-Myc), angiogenesis (VEGF and HIF1α), invasion and metastasis (MMP-1, MMP-2, MMP-9) and the inhibition of host immune surveillance. To further identify the characterization of the properties of 323-1 and 323-2, DU145, EPT3-M1-STAT3 and LNCaP cells were treated with 323-1 and 323-2 followed by western blotting.
To obtain the results shown in FIG. 13, EPT3M1-STAT3 or LNCaP cells were treated with DMSO, 20 μM of compound 323-1, or 20 μM of compound 323-2 for 48 hrs, respectively. Lysates were analysed and loaded to western blotting.

LNCaP tumours = experiment: Antitumor activity in vivo, LNCaP xenograft; conditions: IP daily for three weeks
Procedure: Four-week-old male BALB/c-nu nude mice (15-20 g) were obtained from the Shanghai BiKai Laboratory Animal Co., Ltd. (Shanghai, China). The animals were maintained under specific pathogen-free conditions with food and water supplied ad libitum in the Laboratory Animal Center of the Second Military Medical University. All animal experiments were carried out in accordance with the Guide for the Care and Use of Laboratory Animals of the National Institutes of Health and were approved by the Committee on the Ethics of Animal Experiments of the Second Military Medical University, China. LNCaP cells were harvested and re-suspended in PBS. A total of 5×10^6 cells were subcutaneously injected into the right flank. Tumour volume was calculated using the following formula: V=(L×[…])/2, where L is the length and W is the width of the tumour nodules measured with vernier callipers. Once the volume of the tumours reached 75-100 mm^3, the mice were randomly divided into three groups (n=6). […] Body weights and tumour volumes were measured before each drug injection. […]
The mice were treated daily for three weeks with IP injections of either vehicle (olive oil) or compound 323-2 (20 mg/kg or 40 mg/kg in the vehicle). Body weights and tumour volumes were measured before each drug injection. […]

DU145 cells = experiment: Flow cytometric analysis of cell apoptosis; assay type: cell-based, human; conditions: 72 hrs
Procedure: The […] effect of compounds 323-1 and 323-2 was evaluated in DU145 cells.
Data are shown as representative results of three experiments.

[4] = tested on: phosphorylated STAT3 (Tyr705); experiment: Western blot, IL-6-induced phosphorylation of STAT3 (Tyr705) in LNCaP cells; assay type: cell-based, human; conditions: 20 μM, 24 hrs, 10 ng/ml IL-6 last 15 min
Procedure: To obtain the results shown in FIG. 9, LNCaP cells were treated with DMSO, 20 μM of compound 323-1 or 323-2 or 5 μM cryptotanshinone for 24 hrs before treatment with or without 10 ng/ml IL-6 for the last 15 min.

[5] = tested on: PC3, 22Rv1, LNCaP, EPT3-M1-STAT3-GFP cells; experiment: MTS cell proliferation assay; assay type: cell-based, human; conditions: FIGS. 1-4
Procedure: PC3, 22Rv1, LNCaP, EPT3-M1-STAT3 cells were seeded in 96-well plates for 24 hrs followed by treatment with different doses of 323-1 or 323-2. MTS assay was done after 3 days by adding 10 μl/well CellTiter 96@ AQueous One Solution Reagent (Promega, Madison, Wis., USA) for 4 hrs and the absorbance at 490 nm recorded using a Biotek machine.
To obtain the results shown in FIGS. 1-4, different cell lines were treated with indicated doses of compounds 323-1 and 323-2 for 72 hrs. All data are represented as the average±s.e.m (n=3). Significance was verified by using unpaired two-tailed Student's t-test. *p s 0.05 The total synthesis of compounds 323-1 and 323-2 was conducted as previously reported by Zhang et al. (Journal of the American Chemical Society. 2017; 139: 5558-67). The chemical structures of compounds 323-1 and 323-2 were validated by ^1H NMR, ^13C NMR.

[6] = EPT3-M1-STAT3 and LNCaP cells, 20 μM, 48 hrs

C[C@@H]1CCC(c2cc3c4c(cncc4c2)[C@@H](C)C3)=C1C=O [323-2, (15S,2R)-Delavatine A]
Secretion of IL-10 and IL-12p70 [1]: significantly reduced
Colony formation [2]: Concentration-dependent inhibition of colony formation
Protein level of STAT3 target gene MCL1 [3, 6]: repressed
Protein level of Survivin or PARP [3, 6]: but not Survivin or PARP
Expression of Cyclin D1 ([3]; LNCaP cells): down-regulated dose-dependently
CRPC tumour growth (LNCaP tumours; 20 mg/kg or 40 mg/kg, especially high dose): significantly inhibited CRPC tumour growth
Body weight change (LNCaP tumours; 20 or 40 mg/kg): No significant body weight change
Induction of apoptosis (DU145 cells): appeared to induce apoptosis
Induction of apoptosis compared with cryptotanshinone (DU145 cells): much weaker than by cryptotanshinone
IL-6-induced phosphorylation of STAT3 on Tyr705 [4]: inhibited
Inhibition of proliferation of tumor-initiating and other tumor cells [5]: efficiently inhibit the proliferation

Reference: patent US20230286919A1, “ISOQUINOLINE DERIVATIVES FOR USE IN THERAPY” (Vestlandets Innovasjonsselskap AS, priority 2020, published 2023)
